In PubChem BioAssay (NCI):
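Dose response: 5 concentrations. Exposure: 48 h. Format: 96-well plates. Endpoint: linear interpolation; highest concentration if not reached. TGI denotes the concentration required for complete inhibition of growth.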

Legend:
Test in all cases: NCI anticancer screen, dose series, 48 h
U251 CNS = test system: U251 CNS
HL-60(TB) leukemia = test system: HL-60(TB) leukemia
T-47D breast = test system: T-47D breast
SW-620 colon = test system: SW-620 colon
IGROV1 ovarian = test system: IGROV1 ovarian
SNB-19 CNS = test system: SNB-19 CNS
HOP-62 NSCLC = test system: HOP-62 NSCLC
SNB-75 CNS = test system: SNB-75 CNS
TK-10 renal = test system: TK-10 renal
CCRF-CEM leukemia = test system: CCRF-CEM leukemia

| SMILES | TGI (U251 CNS) | TGI (HL-60(TB) leukemia) | TGI (T-47D breast) | TGI (SW-620 colon) | TGI (IGROV1 ovarian) | TGI (SNB-19 CNS) | TGI (HOP-62 NSCLC) | TGI (SNB-75 CNS) | TGI (TK-10 renal) | TGI (CCRF-CEM leukemia) |
| --- | --- | --- | --- | --- | --- | --- | --- | --- | --- | --- |
| Cc1c(C#N)c2nnn(-c3cccc(Cl)c3)c(=O)n2c1-c1ccccc1 | 11.1 µM | > 100 µM | 53.9 µM | > 100 µM | > 100 µM | > 100 µM | 7.81 µM | 7.76 µM | > 100 µM | > 100 µM |
| Nc1nc(Sc2ccc([N+](=O)[O-])c3nonc23)c2[nH]cnc2n1 | 21.7 µM | 4.86 µM | 4.43 µM | 2.87 µM | 17.1 µM | 31.4 µM | 18.1 µM | 12.2 µM | 6.4 µM | 2.13 µM |
| COc1cc(/C=C(\C)[N+](=O)[O-])cc(OC)c1 | 32.1 µM | 4.33 µM | 16.3 µM | 9.16 µM | 17.6 µM | > 56.2 µM | 33.7 µM | 31.8 µM | 26.1 µM | 5.77 µM |
| Cc1sc(/N=C/C2=C(O)CC(C)(C)CC2=O)nc1-c1ccccc1 | > 100 µM | 5.93 µM | > 100 µM | > 100 µM | > 100 µM | > 100 µM | > 100 µM | > 100 µM | > 100 µM | > 100 µM |
| Clc1ccc(-c2cn3c(nc4ccccc43)c(-c3ccccc3)n2)cc1 | 25.3 µM | > 100 µM | > 75.5 µM | > 100 µM | > 78.3 µM | 32.6 µM | 24.6 µM | > 36.6 µM | 62.2 µM | > 100 µM |
| COC(=O)/C=C(C)/C=C\COC1CCCCO1 (stereo not given) | > 100 µM | > 100 µM | > 100 µM | > 100 µM | > 100 µM | > 100 µM | > 100 µM | > 100 µM | > 100 µM | > 100 µM |
| O=C1NC(N2CCCC(CO)C2)=N/C1=C\c1cccs1 (stereo not given) | > 100 µM | > 100 µM | > 100 µM | > 100 µM | > 100 µM | > 100 µM | > 100 µM | > 100 µM | > 100 µM | > 100 µM |
| O=C1Cc2cc3ccccc3nc2-c2ccccc2N1 | > 100 µM | > 100 µM | > 100 µM | > 100 µM | > 100 µM | > 100 µM | > 100 µM | 65.7 µM | > 100 µM | > 100 µM |
